According to patent publication US20070244190A1, “Neobritannilactone B and acetyl neobritannilactone B” (priority 2006, published 2007):

Experiments:
Type in all cases: cell-based, human
HT-29 cells = assay: Apoptosis (sub-G1) by flow cytometry; conditions: 24 h, mean ± SE
Procedure: (§1) Cell Culture and Chemicals. The COLO 205 and HT 29 cell lines were isolated from human colon adenocarcinoma (ATCC CCL-222 and HTB-38); human promyelocytic leukemia (HL-60) cells were obtained from American Type Culture Collection (Rockville, Md.). The human AGS gastric carcinoma cell lines (CCRC 60102) were obtained from the Food Industry Research and Development Institute (Hsinchu, Taiwan). Cell lines were grown at 37° C. in 5% CO2 dioxide atmosphere in RPMI for COLO 205, HT-29, and HL-60 cells and DMEM/F12 for AGS cells, all supplemented with 10% heat-inactivated fetal bovine serum (GIBCO BRL, Grand Island, N.Y.) (100 units/mL of penicillin, 100 μg/mL of streptomycin), and 2 mM L-glutamine (GIBCO BRL). Selected compounds were dissolved in dimethyl sulfoxide (DMSO). Propidium iodide was obtained from Sigma Chemical Co. (St. Louis, Mo.).
(§2) Flow Cytometry. Human cancer cells (2×10^5) were cultured in 60-mm Petri dishes and incubated for 24 h. The apoptotic cells (sub-G1) in the selected compounds and treated cells were measured by flow cytometry analysis. Then cells were harvested, washed with PBS, resuspended in 200 μL of PBS, and fixed in 800 μL of iced 100% ethanol at −20° C. After being left to stand overnight, the cell pellets were collected by centrifugation, resuspended in 1 mL of hypotonic buffer (0.5% Triton X-100 in PBS and 0.5 μg/mL RNase), and incubated at 37° C. for 30 min. Then 1 mL of propidium iodide solution (50 μg/mL) was added and the mixture was allowed to stand on ice for 30 min. Fluorescence emitted from the propidium iodide-DNA complex was quantitated after excitation of the fluorescent dye by FACScan cytometry (Becton Dickinson, San Jose, Calif.).
(§3) The compounds isolated from Inula were tested for their effects on the apoptotic ratio in human cancer cells.

AGS cells = assay: Apoptosis (sub-G1) by flow cytometry; conditions: 24 h, mean ± SE
Procedure: as §1, §2, §3

COLO 205 cells = assay: Apoptosis (sub-G1) by flow cytometry; conditions: 24 h, mean ± SE
Procedure: as §1, §2, §3

HL-60 cells = assay: Apoptosis (sub-G1) by flow cytometry; conditions: 24 h, mean ± SE
Procedure: as §1, §2, §3

Bcl-XL in AGS cells = assay: Western blot of Bcl-XL expression; conditions: for Bcl-XL expression: various concentrations, 24 hours, FIG. 7A
Procedure: Western Blotting. […] The total proteins were extracted via the addition of 200 μL of gold lysis buffer (50 mM Tris-HCl, pH 7.4; 1 mM NaF; 150 mM NaCl; 1 mM EGTA; 1 mM phenylmethanesulfonyl fluoride; 1% NP-40; and 10 μg/mL leupeptin) to the cell pellets on ice for 30 min, followed by centrifugation at 10,000 g for 30 min at 4° C. The cytosolic fraction (supernatant) proteins were measured by Bio-Rad protein assay (Bio-Rad Laboratories, Munich, Germany). The samples (50 μg of protein) were mixed with 5× sample buffer containing 0.3 M Tris-HCl (pH 6.8), 25% 2-mercaptoethanol, 12% sodium dodecyl sulfate (SDS), 25 mM EDTA, 20% glycerol, and 0.1% bromophenol blue. The mixtures were boiled at 100° C. for 5 min and were subjected to 12% SDS-polyacrylamide minigels at a constant current of 20 mA. Subsequently, electrophoresis was ordinarily carried out on SDS-polyacrylamide gels. For electrophoresis, proteins on the gel were electrotransferred onto an immobile membrane (PVDF; Millipore Corp., Bedford, Mass.) with transfer buffer composed of 25 mM Tris-HCl (pH 8.9), 192 mM glycine, and 20% methanol. The membranes were blocked with blocking solution containing 20 mM Tris-HCl and then immunoblotted with primary antibodies including, anti-Bcl-XL, anti-β-actin (Transduction Laboratory, Lexington, Ky.), anti-PARP (UBI, Inc., Lake Placid, N.Y.), at room temperature for 1 h. Detection was achieved by measuring the chemiluminescence of blotting agent (ECL, Amersham Corp., Arlington Heights, Ill.), after exposure of the filters to KODAK X-OMAT films.
Several gene products are known to be important in controlling the apoptotic process. The imbalance of expression of anti- and pro-apoptotic proteins after a stimulus is one of the major mechanisms underlying the ultimate fate of cells in the apoptotic process. Bcl-XL expression in tumor cells, for instance, confers resistance against chemotherapeutic drugs. The expression of anti-apoptotic protein Bcl-XL was therefore examined in cancer cells treated with various concentrations of NAB or ANAB for 24 hours. […] FIG. 7A. […] FIG. 7B.

C=C1C(=O)OC2C=C(C)CCC=C(C)CC(O)C12 (stereo not drawn) [Compound 3, 4-hydroxy-3α,4,5,8,9,11α-hexahydro-6,10-dimethyl-3-methylene-cyclodeca[b]furan-2(3H)-one]
apoptotic ratio (HT-29 cells; HT-29, 5 μM): 13.58 ± 0.87% | apoptotic ratio (HT-29 cells; HT-29, 10 μM): 24.46 ± .88% | apoptotic ratio (HT-29 cells; HT-29, 25 μM): 66.54 ± 1.58% | apoptotic ratio (HT-29 cells; HT-29, 25 μM, listed as NAB): 66.54% | apoptotic ratio (HT-29 cells; HT-29, 50 μM): 82.27 ± 1.68% | apoptotic ratio (HT-29 cells; HT-29, 100 μM): 87.02 ± 0.30% | apoptotic ratio (AGS cells; 5 μM): 9.55 ± 3.05% | apoptotic ratio (AGS cells; 10 μM): 8.66 ± 0.80% | apoptotic ratio (AGS cells; 25 μM): 11.78 ± 1.40% | apoptotic ratio (AGS cells; 25 μM, listed as NAB): 11.78% | apoptotic ratio (AGS cells; 50 μM): 15.95 ± 1.12% | apoptotic ratio (AGS cells; 100 μM): 19.22 ± 0.57% | apoptotic ratio (COLO 205 cells; COLO 205, 5 μM): 10.73 ± 2.31% | apoptotic ratio (COLO 205 cells; COLO 205, 10 μM): 14.12 ± 1.06% | apoptotic ratio (COLO 205 cells; COLO 205, 25 μM): 41.62 ± 6.34% | apoptotic ratio (COLO 205 cells; COLO 205, 25 μM, listed as NAB): 41.62% | apoptotic ratio (COLO 205 cells; COLO 205, 50 μM): 89.11 ± 1.47% | apoptotic ratio (COLO 205 cells; COLO 205, 100 μM): 96.81 ± 0.51% | apoptotic ratio (HL-60 cells; HL-60, 5 μM): 9.82 ± 1.90% | apoptotic ratio (HL-60 cells; HL-60, 10 μM): 21.93 ± 2.81% | apoptotic ratio (HL-60 cells; HL-60, 25 μM): 77.57 ± 7.06% | apoptotic ratio (HL-60 cells; HL-60, 25 μM, listed as NAB): 77.54% | apoptotic ratio (HL-60 cells; HL-60, 50 μM): 96.94 ± 0.57% | apoptotic ratio (HL-60 cells; HL-60, 100 μM): 98.29 ± 0.15% | Bcl-XL expression (Bcl-XL in AGS cells): dose-dependent decrease of Bcl-XL

C=C1C(=O)O[C@H]2/C=C(\C)CC/C=C(\C)C[C@H](OC(C)=O)[C@@H]12 [Compound 4, acetyl neobritannilactone B]
apoptotic ratio (HT-29 cells; HT-29, 5 μM): 20.38 ± .17% | apoptotic ratio (HT-29 cells; HT-29, 10 μM): 47.56 ± 0.00% | apoptotic ratio (HT-29 cells; HT-29, 25 μM): 69.70 ± .22% | apoptotic ratio (HT-29 cells; HT-29, 25 μM, listed as ANAB): 69.70% | apoptotic ratio (HT-29 cells; HT-29, 50 μM): 81.43 ± 1.46% | apoptotic ratio (HT-29 cells; HT-29, 100 μM): 82.47 ± 2.06% | apoptotic ratio (AGS cells; 5 μM): 6.16 ± 1.17% | apoptotic ratio (AGS cells; 10 μM): 7.87 ± 3.03% | apoptotic ratio (AGS cells; 25 μM): 9.89 ± 4.44% | apoptotic ratio (AGS cells; 25 μM, listed as ANAB): 9.89% | apoptotic ratio (AGS cells; 50 μM): 13.64 ± 0.28% | apoptotic ratio (AGS cells; 100 μM): 43.11 ± 0.99% | apoptotic ratio (COLO 205 cells; COLO 205, 5 μM): 15.47 ± 1.69% | apoptotic ratio (COLO 205 cells; COLO 205, 10 μM): 34.72 ± 2.72% | apoptotic ratio (COLO 205 cells; COLO 205, 25 μM): 76.87 ± 2.39% | apoptotic ratio (COLO 205 cells; COLO 205, 25 μM, listed as ANAB): 76.87% | apoptotic ratio (COLO 205 cells; COLO 205, 50 μM): 96.92 ± 0.20% | apoptotic ratio (COLO 205 cells; COLO 205, 100 μM): 98.66 ± 0.10% | apoptotic ratio (HL-60 cells; HL-60, 5 μM): 22.93 ± 1.34% | apoptotic ratio (HL-60 cells; HL-60, 10 μM): 39.71 ± 2.85% | apoptotic ratio (HL-60 cells; HL-60, 25 μM): 95.17 ± 1.61% | apoptotic ratio (HL-60 cells; HL-60, 25 μM, listed as ANAB): 95.17% | apoptotic ratio (HL-60 cells; HL-60, 50 μM): 97.74 ± 0.44% | apoptotic ratio (HL-60 cells; HL-60, 100 μM): 98.05 ± .30% | Bcl-XL expression over time (Bcl-XL in AGS cells; at 12 h, 15 μM, FIG. 7B): marked and significant change in the expression of Bcl-XL | Bcl-XL expression (Bcl-XL in AGS cells): dose-dependent decrease of Bcl-XL
